# PubChem BioAssay (NCI)
#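 Protocol summary: plate cells (96-well), add compound at 5 concentrations, incubate 48 h, interpolate endpoints linearly. Abbreviation: GI50, concentration required for 50% inhibition of growth. TGI: concentration producing complete growth inhibition.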
# What was measured:
# Experiment in all cases: NCI-60 cell line screen, 48 h
# [1] = test system: 786-0 renal
# [2] = test system: A498 renal
# [3] = test system: ACHN renal
# [4] = test system: CCRF-CEM leukemia
# [5] = test system: COLO 205 colon
# [6] = test system: DLD-1 colon
# [7] = test system: DMS 114 small cell lung
# [8] = test system: HCC-2998 colon
# [9] = test system: HCT-116 colon
# [10] = test system: HCT-15 colon
# [11] = test system: HOP-18 NSCLC
# [12] = test system: HOP-92 NSCLC
# [13] = test system: HT29 colon
# [14] = test system: IGROV1 ovarian
# [15] = test system: K-562 leukemia
# [16] = test system: KM12 colon
# [17] = test system: KM20L2 colon
# [18] = test system: LOX IMVI melanoma
# [19] = test system: LXFL 529 NSCLC
# [20] = test system: M19-MEL melanoma
# [21] = test system: MALME-3M melanoma
# [22] = test system: MCF7 breast
# [23] = test system: MDA-MB-231 breast
# [24] = test system: MDA-MB-435
# [25] = test system: MOLT-4 leukemia
# [26] = test system: NCI-H226 lung
# [27] = test system: NCI-H460 lung
# [28] = test system: NCI-H522 lung
# [29] = test system: NCI/ADR-RES ovarian
# [30] = test system: OVCAR-3 ovarian
# [31] = test system: OVCAR-5 ovarian
# [32] = test system: OVCAR-8 ovarian
# [33] = test system: RPMI-8226 leukemia
# [34] = test system: RXF 393 renal
# [35] = test system: SF-268 CNS
# [36] = test system: SF-539 CNS
# [37] = test system: SK-MEL-2 melanoma
# [38] = test system: SK-MEL-28 melanoma
# [39] = test system: SK-MEL-5 melanoma
# [40] = test system: SK-OV-3 ovarian
# [41] = test system: SN12C renal
# [42] = test system: SNB-19 CNS
# [43] = test system: SNB-78 CNS
# [44] = test system: SR leukemia
# [45] = test system: SW-620 colon
# [46] = test system: T-47D breast
# [47] = test system: UACC-257 melanoma
# [48] = test system: XF 498 CNS
smiles,measurement,setting,value
C[CH2][Sn]([CH2]C)([O]C(=O)c1cccc(OC)c1)[O][Sn]([CH2]C)([CH2]C)[O]C(=O)c1cccc(OC)c1,GI50,[1],17 µM
same,TGI,[1],30.7 µM
same,GI50,[2],16 µM
same,TGI,[2],30.2 µM
same,GI50,[3],17.1 µM
same,TGI,[3],31.4 µM
same,GI50,[4],3.17 µM
same,TGI,[4],17.7 µM
same,GI50,[5],22 µM
same,TGI,[5],> 54.8 µM
same,GI50,[6],14.3 µM
same,TGI,[6],29.6 µM
same,GI50,[7],15.9 µM
same,TGI,[7],30.1 µM
same,GI50,[8],> 76 µM
same,TGI,[8],> 100 µM
same,GI50,[9],> 43.2 µM
same,TGI,[9],> 58.8 µM
same,GI50,[10],17.4 µM
same,TGI,[10],35.4 µM
same,GI50,[11],15.9 µM
same,TGI,[11],29.3 µM
same,GI50,[12],15 µM
same,TGI,[12],29.8 µM
same,GI50,[13],33.2 µM
same,TGI,[13],> 100 µM
same,GI50,[14],> 100 µM
same,TGI,[14],> 100 µM
same,GI50,[15],9.4 µM
same,TGI,[15],60.3 µM
same,GI50,[16],> 100 µM
same,TGI,[16],> 100 µM
same,GI50,[17],43.6 µM
same,TGI,[17],> 100 µM
same,GI50,[18],11.4 µM
same,TGI,[18],25.9 µM
same,GI50,[19],10.1 µM
same,TGI,[19],21.7 µM
same,GI50,[20],17.1 µM
same,TGI,[20],31.7 µM
same,GI50,[21],15 µM
same,TGI,[21],30.4 µM
same,GI50,[22],10.1 µM
same,TGI,[22],26.6 µM
same,GI50,[23],16 µM
same,TGI,[23],33.5 µM
same,GI50,[24],18.8 µM
same,TGI,[24],42.4 µM
same,GI50,[25],27.9 µM
same,TGI,[25],> 72.4 µM
same,GI50,[26],18.4 µM
same,TGI,[26],33.2 µM
same,GI50,[27],> 71 µM
same,TGI,[27],> 100 µM
same,GI50,[28],0.879 µM
same,TGI,[28],2.4 µM
same,GI50,[29],> 100 µM
same,TGI,[29],> 100 µM
same,GI50,[30],58 µM
same,TGI,[30],> 100 µM
same,GI50,[31],27 µM
same,TGI,[31],> 61.6 µM
same,GI50,[32],> 42.1 µM
same,TGI,[32],> 57 µM
same,GI50,[33],13 µM
same,TGI,[33],54.3 µM
same,GI50,[34],15 µM
same,TGI,[34],28.4 µM
same,GI50,[35],23.2 µM
same,TGI,[35],> 56.6 µM
same,GI50,[36],16.4 µM
same,TGI,[36],30.4 µM
same,GI50,[37],16.6 µM
same,TGI,[37],37.4 µM
same,GI50,[38],16.3 µM
same,TGI,[38],35.9 µM
same,GI50,[39],42.9 µM
same,TGI,[39],> 64 µM
same,GI50,[40],> 100 µM
same,TGI,[40],> 100 µM
same,GI50,[41],19.9 µM
same,TGI,[41],44.9 µM
same,GI50,[42],23.1 µM
same,TGI,[42],57.1 µM
same,GI50,[43],16.2 µM
same,TGI,[43],32.9 µM
same,GI50,[44],26.3 µM
same,TGI,[44],> 100 µM
same,GI50,[45],16.7 µM
same,TGI,[45],33.1 µM
same,GI50,[46],3.05 µM
same,TGI,[46],13.5 µM
same,GI50,[47],17.2 µM
same,TGI,[47],34.6 µM
same,GI50,[48],16.1 µM
same,TGI,[48],29.6 µM
